Measurements from patent US12495798B2, “Nicotinamide compound and herbicidal composition comprising compound” (KOREA RESEARCH INSTITUTE OF CHEMICAL TECHNOLOGY, priority 2019, dated 2025).

Columns and labels:
Format in all cases: in vivo
black nightshade [1] = assay: Herbicidal activity test against upland field weeds (foliar treatment test); set-up: key to Foliar treatment herbicidal activity, black nightshade: 0 (no control); 100 (complete control); settings: scale 0-100
Method in brief: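 Visual 0–100 control ratings relative to untreated plants, taken 14 (or 21) days after spraying foliage at 50 or 75 g a.i./ha. Spray solution: 50% acetone with 0.1% Tween-20; plants kept in greenhouse at 30±5 °C, 14 h light/10 h dark.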

black nightshade [2] = assay: Herbicidal activity test against upland field weeds (soil treatment test); set-up: key to Soil treatment herbicidal activity, black nightshade: 0 (no control); 100 (complete control); settings: scale 0 (no control) to 100 (complete control); for pest or weed control at 50 g/ha: Solanum nigrum
Method in brief: (§1)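 Weed control scored visually on a 0 (none) to 100 (complete) scale versus untreated pots at 14 or 21 days in greenhouse (30±5 °C, 14 h light). Test compounds, 50 or 75 g a.i./ha in 50% acetone/0.1% Tween-20, hand-sprayed onto soil one day post-sowing.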

fall panicum = assay: as above; set-up: key to Soil treatment herbicidal activity, Fall panicum: 0 (no control); 100 (complete control); settings: scale 0 (no control) to 100 (complete control); for pest or weed control at 50 g/ha: Panicum dichotomiflorum
Method in brief: as §1

| Structure (SMILES) | Foliar treatment herbicidal activity, black nightshade (black nightshade [1]; 50 g ai/ha) | pest or weed control at 50 g/ha (fall panicum; 50 g ai/ha) | Soil treatment herbicidal activity, black nightshade (black nightshade [2]; 50 g ai/ha) | Soil treatment herbicidal activity, Fall panicum (fall panicum; 50 g ai/ha) | further results |
| --- | --- | --- | --- | --- | --- |
| Cn1nnnc1COCc1nc(C(F)(F)F)ccc1C(=O)Nc1nnnn1C [Compound No. 1-61, N-(1-methyl-1H-tetrazol-5-yl)-2-(((1-methyl-1H-tetrazol-5-yl)methoxy)methyl)-6-(trifluoromethyl)nicotinamide] | 100 | 95% |  |  | pest or weed control at 50 g/ha (black nightshade [2]; 50 g ai/ha): 98% |
| Cn1nnnc1COc1nc(C(F)(F)F)ccc1C(=O)Nc1nnnn1C [Compound No. 1-1, N-(1-methyl-1H-tetrazol-5-yl)-2-((1-methyl-1H-tetrazol-5-yl)methoxy)-6-(trifluoromethyl)nicotinamide] | 100 | 98% | 100 |  |  |
| Cn1nc(COCc2nc(C(F)(F)F)ccc2C(=O)Nc2nnnn2C)nc1Cl [Compound No. 2-135, 2-(((5-chloro-1-methyl-1H-1,2,4-triazol-3-yl)methoxy)methyl)-N-(1-methyl-1H-tetrazol-5-yl)-6-(trifluoromethyl)nicotinamide] |  |  |  | 0 | pest or weed control at 50 g/ha (black nightshade [1]; Solanum nigrum, 50 g ai/ha): 98%; pest or weed control at 50 g/ha (black nightshade [2]; 50 g ai/ha): 60% |
| CN(Cc1nnn(C)n1)c1nc(C(F)(F)F)ccc1C(=O)Nc1nnnn1C [Compound No. 2-26, 2-(methyl((2-methyl-2H-tetrazol-5-yl)methyl)amino)-N-(1-methyl-1H-tetrazol-5-yl)-6-(trifluoromethyl)nicotinamide] |  |  |  |  | Foliar treatment herbicidal activity, black nightshade (black nightshade [1]; 75 g ai/ha): 100; Soil treatment herbicidal activity, black nightshade (black nightshade [2]; 75 g ai/ha): 100; Soil treatment herbicidal activity, Fall panicum (fall panicum; 75 g ai/ha): 100 |
| Cn1nnnc1COc1nc(C(F)(F)F)ccc1C(=S)Nc1nnnn1C [Compound No. 1-43, N-(1-methyl-1H-tetrazol-5-yl)-2-((1-methyl-1H-tetrazol-5-yl)methoxy)-6-(trifluoromethyl)pyridin-3-carbothioamide] | 100 |  | 0 | 0 |  |
| Cn1cnc(COCc2nc(C(F)F)ccc2C(=O)Nc2nnnn2C)n1 [Compound No. 2-85] | 100 |  | 93 | 20 |  |
| Cn1nnc(COCc2nc(C(F)F)ccc2C(=O)Nc2nnnn2C)n1 [Compound No. 2-84, 6-(difluoromethyl)-N-(1-methyl-1H-tetrazol-5-yl)-2-(((2-methyl-2H-tetrazol-5-yl)methoxy)methyl)nicotinamide] | 100 | 20% | 100 |  |  |
| Cn1nnnc1NC(=O)c1ccc(C(F)(F)F)nc1OCc1nnnn1C(F)F [Compound No. 1-26, 2-((1-(difluoromethyl)-1H-tetrazol-5-yl)methoxy)-N-(1-methyl-1H-tetrazol-5-yl)-6-(trifluoromethyl)nicotinamide] | 100 | 60% | 100 |  |  |
